Reference: patent publication US9173838B2, “Reverse micelle compositions for delivery of metal cations comprising a diglyceride and a phytosterol and method of preparation” (MEDESIS PHARMA SA, priority 2004, dated 2015)

Columns and labels:
[1] = system: adryamycin-induced inflammation/oedema in male Wistar rat leg; assay: SOD like activity on rats: test with adryamycin (oedema by plethysmography); type: in vivo
Description: 2—<<SOD Like>> Activity on Rats: Test with Adryamycin
The test with adryamycin is a specific test to highlight free anti-radicals activity of a substance. The product contains reverse micelles based on manganese prepared according to example 3.
One hour after injection in the leg of a male Wistar rat of 0.2 ml of a solution of adryamycin, a temporary inflammation appears for approximately 12 hours. A second inflammatory phase begins on the 3rd day and lasts for 5 days. The vascular hyperpermeability and the oedema which results therefrom, with a deterioration of the cells of endothelial membranes, are caused by the release of free radicals. […] The oedema is measured by plethysmography (expressed by % of pow volume).
3 batches of 10 rats are made up: • negative batch controls: olive oil administration (2 ml/kg) by rectal route • positive batch controls: administration of 100 mg/kg of diosmine • batch treated by NP 02 (manufactured according to example 3): 2 ml/kg by rectal route Results (SD Stands for Standard Deviation)—FIG. 3

[2] = system: fructose rats (non insulin dependent diabetes model); assay: Antidiabetic activity on fructose rats; type: in vivo; settings: for glycemia D 0: D0 before start of treatment (baseline); for glycemia D3: day 3 of daily treatment; for glycemia D7: day 7 of daily treatment; for glycemia D21: day 21 of daily treatment
Text: 1—Antidiabetic Activity on Fructose Rats
The model of the fructose rats is a non insulin dependent diabetes (NIDD) similar to the observed human type 2 diabetes.
In this study, the NP 01 product contains reverse micelles based on vanadium, prepared according to example 2. Its therapeutic activity is compared with two reference drugs: Metformin and Rosiglitazone.
At D −21, after the period of stalling, rats are weighed and a blood sampling is made to determine the basal values of the biochemical parameters.
The rats are distributed randomly in groups of 10 rats. The drink water is then replaced by a solution of fructose 10% in distilled water. This solution is provided ad libitum for 21 days. They receive then again normal water for the following 21 days of the treatment.
At D 0, animals are weighed and a blood sampling is carried out.
The treatment then starts for a 21-day duration, with a daily administration: • Control group: 1 ml/kg of normal water per os • NP 01group: 2 ml/kg by the rectal route • Metformin group: 50 mg/kg of Metformin per os. • Rosiglitazone group: 5 mg/kg of Rosiglitazone per os
At D 21, blood sample and end of the treatment.

[3] = Strontium amount in bone and plasma of growing rats (atomic absorption); type: in vivo, Wistar female rats; settings: end of 6 weeks treatment
Description: (§1) The animals are Wistar female rats of 200 g (average).
(§2) Homogeneous batches of 10 rats are made up starting from their weight.
(§3) The treatment is administered once per day during 6 weeks.
(§4) Administered batches and products: • control batch (administration of olive oil by rectal route) • SrCl2 batch (SrCl2 and strontium ranelate are known active ingredients for the osseous growth and treatment of osteoporosis). 68.2 mg of metal Sr/kg/day are administered by rectal route. • NP 05 A batch: product prepared according to example 4 of the invention, with 12.5 mg metal Sr/kg/day.
(§5) NP 05 B batch: product prepared according to example 5 of the invention, with 1.21 mg metal Sr/kg/day.
(§6) NP 05 C batch: product prepared according to example 6 of the invention, with 0.12 mg metal Sr/kg/day.
(§7) Parameters analyzed at the end of the treatment: • animals weight • measurement of the diameter of the rats femoral head after euthanasia and sampling (slide caliper under binocular magnifying glass) • Strontium amount in bone (by atomic absorption). • Strontium amount in plasma (by atomic absorption). Results

growing rats = assay: Stimulation of the osseous growth on growing rats (femoral diameter); type: in vivo, Wistar female rats; settings: once per day during 6 weeks, rectal route
Description: 3—Stimulation of the Osseous Growth on Growing Rats
The objective of this study is the assessment of a stimulation activity of the osseous growth in growing rats.
The product contains reverse micelles based on strontium prepared according to example 4.
as §1, §2, §3, §4, §5, §6, §7

## COc1ccc(-c2cc(=O)c3c(O)cc(O[C@@H]4O[C@H](CO[C@@H]5O[C@@H](C)[C@H](O)[C@@H](O)[C@H]5O)[C@@H](O)[C@H](O)[C@H]4O)cc3o2)cc1O [Positive control, diosmine]
[1]
  free anti-radicals activity (in words): free anti-radical activity similar to Manganese superoxydismutase
[1]; Wistar rats, D1
  % of pow volume D1: 106.7%
[1]; Wistar rats, D2
  % of pow volume D2: 120.8%
[1]; Wistar rats, D3
  % of pow volume D3: 152.2%
[1]; Wistar rats, D4
  % of pow volume D4: 163%
[1]; Wistar rats, D5
  % of pow volume D5: 177.6%
[1]; Wistar rats, D6
  % of pow volume D6: 177.5%
[1]; Wistar rats, D7
  % of pow volume D7: 168.2%
[1]; Wistar rats, D8
  % of pow volume D8: 163.5%

## CN(CCOc1ccc(CC2SC(=O)NC2=O)cc1)c1ccccn1 (stereo not shown) [Rosiglitazone]
[2]
  glycemia D 0: 10.38 mmol/L
  glycemia D3: 10.47 mmol/L
  glycemia D7: 9.37 mmol/L
  glycemia D21: 9.13 mmol/L

## [Cl-].[Cl-].[Sr+2] [SrCl2]
[3]
  Sr in bone: 1508.83 µg/g
Growing rats
  Femoral diameter: 3.93 mm

## CN(C)C(=N)N=C(N)N [Metformin]
[2]
  glycemia D 0: 10.64 mmol/L
  glycemia D3: 10.63 mmol/L
  glycemia D7: 9.68 mmol/L
  glycemia D21: 8.91 mmol/L
